The results in this text go back to US20060257411A1 (priority 2005, published 2006).

One assay relates to peritoneal macrophages. The class given is cell-based, mouse.
Assay [1] relates to MyD88-independent pathway (TRIF-TRAM, IRF-3) in peritoneal macrophages. It is filed as cell-based, mouse.
In assay [2] the test system is vesicular stomatitis virus (VSV). It is filed as cell-based. Particulars: Heedless or Tlr4 Lps-d/Lps-d macrophages treated with interferon before infection (4 h).
Where [3] appears, read: macrophages from homozygous Heedless mice compared with wild-type, 4 h incubation.

Like-named read-outs stand apart in the source and are kept apart here.

In the case of MALP-2, the “TNF production in response to inducer” value in the assay on peritoneal macrophages was “partial impairment”.

For lipid A, the “TNF production in response to lipid A” value with peritoneal macrophages is recorded as “perfectly able to produce TNF”. In assay [1], the “formation of the IRF-3 phosphodimer” value is “not detected” and the “signaling via the MyD88-independent pathway (type I IFN production)” value was “prevented”.

In the case of Pam2CSK4, the “TNF production in response to inducer” value in the assay on peritoneal macrophages (setting [3]) is reported as “partial impairment”.

As for Pam3CSK4, the “TNF production in response to inducer” value in the assay with peritoneal macrophages (setting [3]) is “normal”.

For the molecule lipoteichoic acid, the “TNF production in response to inducer” value in the assay with peritoneal macrophages is reported as “partial impairment”.

For poly IC, the “TNF production in response to inducer” value in the assay on peritoneal macrophages (setting [3]) is recorded as “normal”.

B1: type I interferon: recombinant murine IFN-β from R&D systems used to pretreat macrophages (protein, UniProt P01575 22-182, looked up)
Interferon beta: INYKQLQLQERTNIRKCQELLEQLNGKINLTYRADFKIPMEMTEKMQKSYTAFAIQEMLQNVFLVFRNNFSSTGWNETIVVRLLDELHQQTVFLKTVLEEKQEERLTWEMSSTALHLKSYYWRVQRYLKLMKYNSYAWMVVRAEIFRNFLIIRRLTRNFQN
As to B1, the “lytic effect of VSV on macrophages” value in assay [2] is recorded as “prevented”.
